Results: paper PMC7155171, “Probing the Open Global Health Chemical Diversity Library for Multistage-Active Starting Points for Next-Generation Antimalarials” (ACS Infectious Diseases, 2020)
Like-named read-outs stand apart in the source and are kept apart here.

Tests used:
[1] = test system: P. falciparum Dd2 (PfLuc) line expressing firefly luciferase, asexual blood stage; assay: microbe, parasite or virus in culture; format: cell-based, Plasmodium falciparum; settings: Plasmodium falciparum
P. falciparum Dd2 = assay: SYBR green I asexual blood stage proliferation assay (96 h); format: cell-based, Plasmodium falciparum; settings: Plasmodium falciparum, DD2, 11-pt dose response, 96hr
[2] = DD2, read-out: P. falciparum Luciferase ABS 11-pt Reconfirmation Dose Response (48hr): IC50, 11-pt dose response, 48hr
[3] = DD2, 8-pt dose response, 96hr, read-out: P. falciparum Luciferase ABS 8-pt Reconfirmation Dose Response (96hr): IC50
[4] = DD2, 8-pt dose response, 96hr, read-out: P. falciparum Luciferase ABS 8-pt Reconfirmation Dose Response (96hr): Maximum inhibition (%)
[5] = DD2, 11-pt dose response, 48hr, read-out: P. falciparum Luciferase ABS 11-pt Reconfirmation Dose Response (48hr): Maximum inhibition (%)
[6] = DD2, 11-pt dose response, 96hr, read-out: P. falciparum Luciferase ABS 11-pt Reconfirmation Dose Response (96hr): IC50
[7] = DD2, 11-pt dose response, 96hr, read-out: P. falciparum Luciferase ABS 11-pt Reconfirmation Dose Response (96hr): Maximum inhibition (%)
[8] = read-out: P. falciparum Sybr Green I ABS 11-pt Reconfirmation Dose Response (96hr): IC50
[9] = read-out: P. falciparum Sybr Green I ABS 11-pt Reconfirmation Dose Response (96hr): Maximum inhibition (%)
[10] = DD2, read-out: CDD P. falciparum Luciferase ABS 11-pt Reconfirmation Dose Response (48hr): IC50 (μM), 11-pt dose response, 48hr
[11] = DD2, 8-pt dose response, 96hr, read-out: CDD P. falciparum Luciferase ABS 8-pt Reconfirmation Dose Response (96hr): IC50
[12] = DD2, 8-pt dose response, 96hr, read-out: CDD P. falciparum Luciferase ABS 8-pt Reconfirmation Dose Response (96hr): Maximum inhibition (%)
[13] = DD2, 11-pt dose response, 48hr, read-out: CDD P. falciparum Luciferase ABS 11-pt Reconfirmation Dose Response (48hr): Maximum inhibition (%)
[14] = DD2, 11-pt dose response, 96hr, read-out: CDD P. falciparum Luciferase ABS 11-pt Reconfirmation Dose Response (96hr): IC50
[15] = DD2, 11-pt dose response, 96hr, read-out: CDD P. falciparum Luciferase ABS 11-pt Reconfirmation Dose Response (96hr): Maximum inhibition (%)
[16] = Sybr Green I, read-out: CDD P. falciparum Sybr Green I ABS 11-pt Reconfirmation Dose Response (96hr): IC50
[17] = Sybr Green I, read-out: CDD P. falciparum Sybr Green I ABS 11-pt Reconfirmation Dose Response (96hr): Maximum inhibition (%)

SMILES	IC50 [1, 2] [µM]	IC50 [1, 3] [µM]	Emax [1, 4] [%]	Emax [1, 5] [%]	IC50 [1, 6] [µM]	Emax [1, 7] [%]	IC50 (P. falciparum Dd2; [8]) [µM]	Emax (P. falciparum Dd2; [9]) [%]	IC50 [1, 10] [µM]	IC50 [1, 11] [µM]	Emax [1, 12] [%]	Emax [1, 13] [%]	IC50 [1, 14] [µM]	Emax [1, 15] [%]	IC50 (P. falciparum Dd2; [16]) [µM]	Emax (P. falciparum Dd2; [17]) [%]
Clc1cccc(C[C@@H]2NCCC[C@@H]2Nc2ccccc2)c1 [DDD01058682]	1.83	1.21	94.7	99.1	0.857	101	3.39	93.6								
Cc1nn(C)cc1C1=NS(=O)(=O)N(C)C(C(=O)Nc2ccc(Cl)cc2)=C1 [DDD01058696]									1.23	0.34	96.1	100	0.511	101	0.705	98.7
Cn1ccnc1CN(Cc1ccccn1)Cc1ccccc1Cl [DDD01058741]									2.68	0.59	93.9	94.3	0.592	100	6.14	83.5
Cc1ncc(CN(Cc2ccccn2)Cc2ccccc2Cl)n1C [DDD01058742]									3.44	0.51	86.1	74	0.999	94.5	1.54	67.5
Fc1ccc(F)c(CN2CCC(c3cc4ncccc4cn3)CC2)c1 [DDD01058752]									1.07	0.41	96.2	94.1	0.979	98	0.859	90.5
Fc1cccc(CN2CCC(c3cc4ncccc4cn3)CC2)c1F [DDD01058754]									1.06	0.78	94.4	95.6	0.571	99.9	0.309	86.9
Clc1cccc(N[C@H]2CCCN[C@H]2Cc2ccccc2)c1 [DDD01058816]									1.92	1.06	95.6	100	0.64	101	3.54	94.8
Cc1cc(CN2CCc3nc(-c4ccncc4)nc(O)c3CC2)c(C)s1 [DDD01058881]	9.43	1.72	88.5	79	2.93	93.4	6.28	78.2								
FC(F)(F)c1cc(C2CCNCC2)nc(-c2ccsc2)n1 [DDD01058935]									> 12.5	0.67		64.4	> 1.39	92.1	4.36	60.5
CC(C)(C)C(=O)N1C[C@H](c2ccsc2)[C@H]2CN(C3CCCCC3)CC[C@H]21 [DDD01058940]									> 12.5	0.84	83.6	59.1	2.03	90.2	8.8	74.2
Cc1ccc(C2(CN3CCN(Cc4cnc(C)n4C)CC3)CC2)cc1 [DDD01059041]									1.95	0.25		77.8	0.532		1.32	88.5
CN(C)CCN(C)C(=O)Cn1cccc2cc(-c3ccc(F)cc3)nc1-2 [DDD01059044]									1.87	0.54	95.7	95.1	1.9	98.3	1.17	99.6
Cc1cccc(Nc2cccc(C3CCCN(Cc4ncc[nH]4)C3)n2)n1 (stereo not drawn) [DDD01059475]									1.69	1.07	95.8	98.9	> 1.39	100	0.965	92.2
CC(C)CNC(=O)C1(Cc2ccccc2-c2cccs2)CCNC1 (stereo not drawn) [DDD01059689]									> 12.5	0.92	73.8	49.4	> 1.39	87.3	> 12.5	45.7
N[C@@H]1CCC[C@@H](Oc2ccc(F)cc2Oc2ccccc2)[C@@H]1O [DDD01059731]									> 1.4	0.69	93.5	89.8	> 1.39	98.4	4.96	86.9
Cc1ccc(Oc2cc(F)ccc2O[C@@H]2CCC[C@@H](N)[C@H]2O)cc1 [DDD01059749]									2.7	0.54	92.7	98	> 1.39	100	2.27	95.9
Cc1cccnc1CN1CC[C@H](Oc2cccc(F)c2)[C@@](C)(O)C1 [DDD01060871]									1.92	0.92	90.5	93.1	0.553	100	2.59	82.8
CC1(C)CC(N(Cc2cccnc2)Cc2cccc(F)c2)CC(C)(C)N1 [DDD01060979]									3.32	0.3	88		> 1.39	98.4	8.55	79.9
Cc1ccsc1CN(Cc1cccnc1)C1CC(C)(C)NC(C)(C)C1 [DDD01060982]									4.19	1.04	88.1	61.9	1.59	95.6	> 4.16	70.5
Cc1ccsc1CN(CCCN(C)C)Cc1ccccn1 [DDD01060996]									> 12.5	0.55	79.6	51.6	3.57	82.3	> 12.5	46.2
COc1ccc(C(C)NCc2ccsc2)cc1Cn1cccn1 (stereo not drawn) [DDD01061827]									> 12.5	0.79	81.9	38.8	1.78	68.9	> 4.16	58.7
Cc1ccc(CNC(C)c2cc(F)ccc2N2CCN(C)CC2)o1 (stereo not drawn) [DDD01061881]									3.93	0.41	90.7	87.5	2.12	97.7	2.42	
Cc1cnn(CCNCc2nccn2Cc2ccccc2)c1 [DDD01062085]									10.4	0.53		75	1.22	95.2	> 12.5	51.3
CN1CCC(N(Cc2ccco2)S(=O)(=O)c2ccc(Br)cc2Cl)CC1 [DDD01063208]									> 12.5	0.58	76.6	21.3	2.19	81.7	10.6	54.5
Cc1ccc(CN(c2cc(C)nc3nc(C(F)(F)F)nn23)C2CC2)cc1 [DDD01063654]									2.34	0.37		89.4	0.45	99.7	2.1	
CN(Cc1cc(F)cc2cccnc12)CC1CCN(CCO)CC1 [DDD01063806]									3.63	0.92	93.1	96.1	2.11	100	1.11	93.2
CN(Cc1cc(Cl)cc2cccnc12)CC1CCN(CCO)CC1 [DDD01063807]									2.2	0.36	94.1	97.5	1.42	100	0.584	95.8
c1cc(N2CCC(CN3CCOCC3)CC2)c2sccc2n1 [DDD01064806]	1.38	1.43	94.6	99.7	1.12	100	1.15	100								
CNC(=O)CCN(C)CC1(c2ccc(Br)cc2)CC1 [DDD01064880]									5.21	0.54		64.4	4.63	88.9	6.59	73.3
Cc1cc(C)c(CNCC(O)c2ccc(F)c(F)c2)c(C)c1 (stereo not drawn) [DDD01065539]									0.316	0.15	96.6	97.4	0.143	100	0.312	99.5
